These results are taken from PubChem BioAssay (NCI).

Several values for one entry are separate records, joined by “and”; a condition that tells them apart may be missing. Equal entries are not always repeated.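 Results reflect a 48-hour exposure of cells in 96-well plates to compound at five concentrations. GI50: concentration for 50% inhibition of growth. Definition used: TGI = concentration required for complete inhibition of growth.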

One assay relates to U251 CNS. The assay can be described thus: growth of human tumour cells (NCI), 48 h.
As for `O=C(c1ccc(F)c(F)c1Nc1ccc(I)cc1F)N1CC(O)([C@@H]2CCCCN2)C1`, the GI50 is 0.492 µM and 0.958 µM; the TGI was 17.9 µM and > 10 µM.

Turning to `Oc1cc(O)c2c(c1)OC(c1ccc(O)c(O)c1)C(OC1(c3cc(O)c(O)c(O)c3)Oc3cc(O)cc(O)c3C(O)C1O)C2` (stereo unspecified), the TGI worked out at 46.2 µM.

Take `COC12C=C/C(=C(/C(=O)OCc3ccncc3)C(=O)CCCCCCCCC3(OC)C=C/C(=C(/C(=O)OCc4ccncc4)C(=O)CCCCCCCC1)O3)O2`: the GI50 is 0.5 µM and the TGI was determined as 1.46 µM.

Regarding `CCOc1ccc2nc(S/C(=C/C=C(C#N)C#N)c3ccc(C)cc3)sc2c1`, the GI50 is 29.4 µM and the TGI is above 100 µM.

Take `COc1cc(CNCCCN2C(=O)c3ccc4c5c(ccc(c35)C2=O)C(=O)N(CCCNCc2cc(OC)c(OC)c(OC)c2)C4=O)cc(OC)c1OC`: the GI50 is 0.257 µM and the TGI worked out at 0.93 µM.

For the compound `Cc1nc2cnc(N)c(C#Cc3cncc(C(=O)Nc4ccc(CN5CCN(C)CC5)c(C(F)(F)F)c4)c3)c2nc1C`, the GI50 was 2.52 µM and the TGI stood at 19.5 µM.

Turning to `CC(=O)OC12c3ccccc3-c3ccccc3C1C1C(=O)N(C)C(=O)C12Cl` (stereo unspecified), the TGI is above 10 µM.

For the compound `Cc1csc(Nc2nc(-c3cccc(Br)c3)nc(C(Cl)(Cl)Cl)n2)n1`, the GI50 is 1.83 µM and the TGI was above 100 µM.

`NS(=O)(=O)c1ccc(N(/C=C/C(=O)C(F)(F)F)CC(=O)c2ccc(Cl)cc2)cc1`: the GI50 is 33 µM and the TGI was above 100 µM.

`C1CSCCSCCS1`: the TGI is above 100 µM.

For `CCN(CC)CCOc1ccc(/C=C2\CC3C4CC=C5C[C@@H](O)CC[C@]5(C)C4CC[C@]3(C)C2=O)cc1OC` (stereo partly specified), the GI50 is 2.41 µM and the TGI amounted to 6.37 µM.

As for `O=C(CC(O)(C(F)(F)F)C(F)(F)F)c1cc(CC(=O)C(O)(C(F)(F)F)C(F)(F)F)cc(CC(=O)C(O)(C(F)(F)F)C(F)(F)F)c1`, the TGI was found to be 6.4 µM.

The compound `O=c1c2ccccc2sc2cccc(NCCCN3CCN(CCCNc4cccc5sc6ccccc6c(=O)c45)CC3)c12` gave a TGI above 100 µM.

In the case of `CC1(C)OCCn2c1nc1c(N3CCOCC3)nc(-c3cnc(N)nc3)nc12`, the GI50 is 0.673 µM and the TGI came out at 34 µM.

`CC1=CC(=O)[C@@H](O)[C@]2(C)[C@H]3[C@@]4(O)OC[C@]35[C@H]([C@@H](C)[C@H]4O)[C@@H](O)C(=O)O[C@@H]5C[C@@H]12` showed a TGI of 0.379 µM.

`O=C(c1c(F)ccc(NS(=O)(=O)N2CC[C@@H](F)C2)c1F)c1c[nH]c2ncc(-c3cnc(C4CC4)nc3)cc12`: the GI50 is 5.94 µM and 7.53 µM; the TGI is > 10 µM and 39.3 µM.

Regarding `O=C(c1ccc(Cl)cc1)c1cnc(Nc2ccccc2Cl)s1`, the TGI is above 80.9 µM.

The next assay has as its system HCC-2998 colon. The assay can be described thus: growth of human tumour cells (NCI), 48 h.
Consider `O=C(c1ccc(F)c(F)c1Nc1ccc(I)cc1F)N1CC(O)([C@@H]2CCCCN2)C1`, for which the GI50 was < 0.015 µM and 0.0194 µM; the TGI was 0.86 µM and 0.952 µM.

Regarding `Oc1cc(O)c2c(c1)OC(c1ccc(O)c(O)c1)C(OC1(c3cc(O)c(O)c(O)c3)Oc3cc(O)cc(O)c3C(O)C1O)C2` (stereo unspecified), the TGI was above 100 µM.

Turning to `COC12C=C/C(=C(/C(=O)OCc3ccncc3)C(=O)CCCCCCCCC3(OC)C=C/C(=C(/C(=O)OCc4ccncc4)C(=O)CCCCCCCC1)O3)O2`, the GI50 is 0.683 µM and the TGI amounted to 1.39 µM.

Take `CCOc1ccc2nc(S/C(=C/C=C(C#N)C#N)c3ccc(C)cc3)sc2c1`: the GI50 was 25.1 µM and the TGI came to 53.6 µM.

As for `COc1cc(CNCCCN2C(=O)c3ccc4c5c(ccc(c35)C2=O)C(=O)N(CCCNCc2cc(OC)c(OC)c(OC)c2)C4=O)cc(OC)c1OC`, the GI50 was 0.363 µM and the TGI amounted to 0.915 µM.

Regarding `Cc1nc2cnc(N)c(C#Cc3cncc(C(=O)Nc4ccc(CN5CCN(C)CC5)c(C(F)(F)F)c4)c3)c2nc1C`, the GI50 was 0.651 µM and the TGI worked out at 13.1 µM.

As to `CC(=O)OC12c3ccccc3-c3ccccc3C1C1C(=O)N(C)C(=O)C12Cl` (stereo unspecified), the TGI is above 10 µM.

With `Cc1csc(Nc2nc(-c3cccc(Br)c3)nc(C(Cl)(Cl)Cl)n2)n1`, the GI50 was 1.63 µM and the TGI stood at 3.57 µM.

Take `NS(=O)(=O)c1ccc(N(/C=C/C(=O)C(F)(F)F)CC(=O)c2ccc(Cl)cc2)cc1`: the GI50 was 55.7 µM and the TGI is above 100 µM.

`C1CSCCSCCS1` registered a TGI above 100 µM.

Consider `CCN(CC)CCOc1ccc(/C=C2\CC3C4CC=C5C[C@@H](O)CC[C@]5(C)C4CC[C@]3(C)C2=O)cc1OC` (stereo partly specified), for which the GI50 is 8.43 µM and the TGI is 21.6 µM.

As for `O=C(CC(O)(C(F)(F)F)C(F)(F)F)c1cc(CC(=O)C(O)(C(F)(F)F)C(F)(F)F)cc(CC(=O)C(O)(C(F)(F)F)C(F)(F)F)c1`, the TGI is 4.19 µM.

The compound `O=c1c2ccccc2sc2cccc(NCCCN3CCN(CCCNc4cccc5sc6ccccc6c(=O)c45)CC3)c12` showed a TGI above 100 µM.

Take `CC1(C)OCCn2c1nc1c(N3CCOCC3)nc(-c3cnc(N)nc3)nc12`: the GI50 is 0.412 µM and the TGI was above 100 µM.

On to `CC1=CC(=O)[C@@H](O)[C@]2(C)[C@H]3[C@@]4(O)OC[C@]35[C@H]([C@@H](C)[C@H]4O)[C@@H](O)C(=O)O[C@@H]5C[C@@H]12`, for which the TGI turned out to be 2.51 µM.

Take `O=C(c1c(F)ccc(NS(=O)(=O)N2CC[C@@H](F)C2)c1F)c1c[nH]c2ncc(-c3cnc(C4CC4)nc3)cc12`: the GI50 was > 10 µM and 12.5 µM; the TGI is > 10 µM and 29.8 µM.

Consider `O=C(c1ccc(Cl)cc1)c1cnc(Nc2ccccc2Cl)s1`, for which the TGI was above 87.8 µM.

For the next assay, the system named is HOP-62 NSCLC. Description: growth of human tumour cells (NCI), 48 h.
For the compound `O=C(c1ccc(F)c(F)c1Nc1ccc(I)cc1F)N1CC(O)([C@@H]2CCCCN2)C1`, the GI50 was 0.349 µM and 0.067 µM; the TGI is 16.9 µM and > 10 µM.

The compound `Oc1cc(O)c2c(c1)OC(c1ccc(O)c(O)c1)C(OC1(c3cc(O)c(O)c(O)c3)Oc3cc(O)cc(O)c3C(O)C1O)C2` (stereo unspecified) showed a TGI of 56.2 µM.

As to `COC12C=C/C(=C(/C(=O)OCc3ccncc3)C(=O)CCCCCCCCC3(OC)C=C/C(=C(/C(=O)OCc4ccncc4)C(=O)CCCCCCCC1)O3)O2`, the GI50 is 1.18 µM and the TGI came out at 5.59 µM.

Regarding `CCOc1ccc2nc(S/C(=C/C=C(C#N)C#N)c3ccc(C)cc3)sc2c1`, the GI50 is 44.9 µM and the TGI was above 100 µM.

As to `COc1cc(CNCCCN2C(=O)c3ccc4c5c(ccc(c35)C2=O)C(=O)N(CCCNCc2cc(OC)c(OC)c(OC)c2)C4=O)cc(OC)c1OC`, the GI50 is 0.477 µM and the TGI amounted to 1.32 µM.

As to `Cc1nc2cnc(N)c(C#Cc3cncc(C(=O)Nc4ccc(CN5CCN(C)CC5)c(C(F)(F)F)c4)c3)c2nc1C`, the GI50 was 0.738 µM and the TGI turned out to be 10.2 µM.

`CC(=O)OC12c3ccccc3-c3ccccc3C1C1C(=O)N(C)C(=O)C12Cl` (stereo unspecified): the TGI is above 10 µM.
